# Key:
# NahK_JCM1217 = NahK_JCM1217 (Bifidobacterium longum subsp. longum, UniProt E8MF12); details: ATP and GlcNAc as substrates; HPIC with pulsed amperometric detector; cited from earlier work
# NahK_ATCC55813 = NahK_ATCC55813 (Bifidobacterium longum subsp. longum, UniProt E8MF12, D7V/R348H)
# Experimental: (§1) Kinetics by CE assays. Reactions were carried out in duplicate at 37° C. for 10 min in a total volume of 20 μL in Tris-HCl buffer (200 mM, pH 7.5) containing MgCl2 (1 mM), ATP, GlcNAc or GalNAc, and NahK (0.25 μM when GlcNAc and ATP were used as substrates, 0.5 μM when GalNAc and ATP were used as substrates). Apparent kinetic parameters were obtained by varying the ATP concentration from 0.1-5.0 mM (0.1 mM, 0.2 mM, 0.4 mM, 1 mM, 2 mM, and 5 mM) at a fixed concentration of GlcNAc or GalNAc (1 mM), or varying the concentration of GlcNAc or GalNAc (0.1 mM, 0.2 mM, 0.4 mM, 1 mM, 2 mM, and 5 mM) at a fixed concentration of ATP (1 mM) and fitting the data to the Michaelis-Menten equation using Grafit 5.0.
# (§2) Capillary electrophoresis (CE) assays. Based on the detection of ADP and ATP in the reaction mixture by a UV detector, a capillary electrophoresis-based method was developed to directly measure the formation of ADP and N-acetylhexosamine-1-phosphate from ATP and N-acetylhexosamine for characterizing the activities of NahKs.
# human FGF-1 = molecular target: T1, human FGF-1 (Homo sapiens, UniProt P05230); experiment: Inhibition of FGF-1 binding to immobilized heparin-biotin; details: compound 1 mM; FGF 1 μM
# T1 construct: purchased PeproTech Inc (Rocky Hill, N.J.)
# From the text: (§3) Materials. Recombinant human fibroblast growth factors FGF-1, FGF-2, FGF-4, and anti-human FGF-1, FGF-2, FGF-4 were purchased from PeproTech Inc (Rocky Hill, N.J.). Heparin-biotin was from Sigma (St. Louis, Mo.). Low molecular weight heparin (LMWH) was bought from AMS Biotechnology (Lake Forest, Calif.). Alexa Fluor® 488 goat anti-rabbit IgG (H+L) was from Invitrogen (Carlsbad, Calif.). 384-Well NeutrAvidin-coated plates for the sialidase assays were from Fisher Biotech.
# (§4) Methods. All assays were carried out in duplicate in 384-well NeutrAvidin coated plates. Heparin-biotin (20 μL, 2 μM) was added to each well and the plate was incubated at 4° C. for overnight. The plate was washed with 3 rounds of 1×PBS buffer containing 0.05% Tween-20 and blocked with 1% BSA (50 μL for each well) and incubated at r.t. for 30 min. After the plate was washed three times with 1×PBS buffer containing 0.05% Tween-20, each set of duplicate wells were added 20 μL of human FGF-1, FGF-2, or FGF-4 (1 μM) with or without premixing with LMWH (˜22 nM or 0.1 μM), monosaccharide, or oligosaccharides (100 μM or 1 mM) and the plate was incubate at r.t. for 1 hr. After washing three times with 1×PBS buffer containing 0.05% Tween-20, anti-human FGF-1, FGF-2 or FGF-4 (20 μL) was added and the plate was incubated at r.t. for 1 hr. After the plate was washed three times with 1×PBS buffer containing 0.05% Tween-20, Alexa Fluor® 488 goat anti-rabbit IgG (H+L) (20 μL) was added and the plate was incubated at r.t. for 1 hr. After washed three times with 1×PBS buffer containing 0.05% Tween-20 and once with water, the fluorescent signals of wells in the plate were measured using a microtiter plate reader.
# AtGlcAK [1] = molecular target: T2, AtGlcAK (Arabidopsis thaliana, UniProt Q93ZC9, I297M); experiment: AtGlcAK substrate specificity by TLC and LC-MS; format: biochemical; details: sugar 10 mM, ATP 20 mM, AtGlcAK 22 μg, 37° C., 15 hr
# T2 construct: made in house; host or cells: E. coli BL21 (DE3)
# Experimental: Substrates specificity assays by thin-layer chromatography (TLC). […] For visualizing compounds on TLC plate, p-anisaldehyde sugar stain was used.
# LC-MS assays for AtGlcAK reactions. The AtGlcAK reaction mixtures above were also analyzed by LC-MS. 2 μL of sample was diluted 100 fold and 8 μL was injected into a Waters spherisorb ODS-2 column (5 μm particles, 250 mm length, 4.6 mm I.D.). The sample was eluted with 30% acetonitrile in H2O with 0.1% formic acid and detected by ESI-MS in negative mode.
# AtGlcAK [2] = molecular target: T2, AtGlcAK; experiment: AtGlcAK substrate specificity CE assay; format: biochemical; details: Low enzyme Conc. (412 ng in 20 μL, 15 min, 37° C.)
# Experimental: Substrate specificity assays. […] The reactions were quenched and assayed with the same method as those for pH profile. All reactions were performed in duplicates.
# human FGF-2 = molecular target: T3, human FGF-2 (Homo sapiens, UniProt P09038); experiment: Inhibition of FGF-2 binding to immobilized heparin-biotin; details: compound 1 mM; FGF 1 μM
# T3 construct: purchased PeproTech Inc (Rocky Hill, N.J.)
# From the text: as §3, §4
# human FGF-4 = molecular target: T4, human FGF-4 (Homo sapiens, UniProt P08620); experiment: Inhibition of FGF-4 binding to immobilized heparin-biotin; details: compound 1 mM; FGF 1 μM
# T4 construct: purchased PeproTech Inc (Rocky Hill, N.J.)
# T4 sequence (P08620 31-206): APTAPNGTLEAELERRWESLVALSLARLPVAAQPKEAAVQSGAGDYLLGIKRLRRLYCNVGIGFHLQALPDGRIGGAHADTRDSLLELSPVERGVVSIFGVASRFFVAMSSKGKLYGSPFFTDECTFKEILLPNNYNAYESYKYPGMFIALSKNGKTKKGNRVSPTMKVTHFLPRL
# From the text: as §3
# as §4, with “After washing three times with 1×PBS buffer containing 0.05% Tween-20, anti-human FGF-1, FGF-2 or FGF-4 (20 μL) was added and the plate was incubated at r.t. for 1 hr. After the plate was washed three times with 1×PBS buffer containing 0.05% Tween-20, Alexa Fluor® 488 goat anti-rabbit IgG (H+L) (20 μL) was added and the plate was incubated at r.t. for 1 hr.” left out
# [3] = test system: necrotizing enterocolitis in neonatal rats; details: previously reported; cited from earlier work
# NahK_ATCC15697 = NahK_ATCC15697 (Bifidobacterium longum, UniProt B7GN78); experiment: Kinetics by CE assays, NahK_ATCC15697; details: in the presence of ATP
# Experimental: as §1, §2
compound,measurement,setting,value
"Nc1ncnc2c1ncn2[C@@H]1O[C@H](COP(=O)(O)OP(=O)(O)OP(=O)(O)O)[C@@H](O)[C@H]1O [ATP, Adenosine-5′-triphosphate]",Km,NahK_JCM1217,172 µM
same,kcat,NahK_ATCC55813; substrates ATP and GlcNAc,1.3 ± 0.1 s⁻¹
same,Km,"NahK_ATCC55813; substrates ATP and GlcNAc, one varied, other fixed at 1 mM, 37° C., 10 min",110 ± 30 µM
"O=C[C@H](O)[C@@H](O)[C@H](O)[C@H](O)C(=O)O [Compound F24-1, glucuronic acid]",inhibition at 1000 µM,human FGF-1,65%
same,substrate for AtGlcAK (formation of sugar-1-phosphate),AtGlcAK [1],acceptable substrates
same,Percentage conversion of ATP,AtGlcAK [2],61.5%
same,inhibition at 1000 µM,human FGF-2,68%
same,inhibition at 1000 µM,human FGF-4,54%
"CC(=O)N[C@H]1[C@H](O[C@H]2[C@@H](O)[C@@H](CO)O[C@@H](O[C@@H]([C@H](O)[C@@H](O)C=O)[C@H](O)CO)[C@@H]2O)O[C@H](CO[C@]2(C(=O)O)C[C@H](O)[C@@H](NC(C)=O)[C@H]([C@H](O)[C@H](O)CO)O2)[C@@H](O)[C@@H]1O[C@@H]1O[C@H](CO)[C@H](O)[C@H](O[C@]2(C(=O)O)C[C@H](O)[C@@H](NC(C)=O)[C@H]([C@H](O)[C@H](O)CO)O2)[C@H]1O [DSLNT, disialyllacto-N-tetraose]",NEC preventing effect in neonatal rat model,[3],effective for preventing necrotizing enterocolitis
"CC(=O)N[C@H]1C(O)O[C@H](CO)[C@@H](O)[C@@H]1O (some centres unmarked) [GlcNAc, N-acetylglucosamine]",Km,NahK_JCM1217,118 µM
same,efficiency as substrate relative to GalNAc,NahK_ATCC15697,3.1 fold
same,efficiency as substrate relative to GalNAc,NahK_ATCC55813; in the presence of ATP,2.6 fold
GlcNAc6NH2α1-4GlcAβ1-4GlcNSα1-4GlcAβ2AA [Compound F24-15],FGF-2 (% inhibition),human FGF-2,68%
same,FGF-4 (% inhibition),human FGF-4,43%

# Reference: patent US10160986B2, “Chemoenzymatic synthesis of heparin and heparan sulfate analogs” (The Regents of the University of California, priority 2011, dated 2018)
